Data published in ChEMBL document CHEMBL1268942, “Novel selective anti-androgens with a diphenylpentane skeleton” (Bioorg Med Chem Lett, 2010).

biological target: T1, Androgen receptor (Homo sapiens, UniProt P10275); assay: Binding affinity to androgen receptor; details: not given
T1 sequence (P10275 whole entry): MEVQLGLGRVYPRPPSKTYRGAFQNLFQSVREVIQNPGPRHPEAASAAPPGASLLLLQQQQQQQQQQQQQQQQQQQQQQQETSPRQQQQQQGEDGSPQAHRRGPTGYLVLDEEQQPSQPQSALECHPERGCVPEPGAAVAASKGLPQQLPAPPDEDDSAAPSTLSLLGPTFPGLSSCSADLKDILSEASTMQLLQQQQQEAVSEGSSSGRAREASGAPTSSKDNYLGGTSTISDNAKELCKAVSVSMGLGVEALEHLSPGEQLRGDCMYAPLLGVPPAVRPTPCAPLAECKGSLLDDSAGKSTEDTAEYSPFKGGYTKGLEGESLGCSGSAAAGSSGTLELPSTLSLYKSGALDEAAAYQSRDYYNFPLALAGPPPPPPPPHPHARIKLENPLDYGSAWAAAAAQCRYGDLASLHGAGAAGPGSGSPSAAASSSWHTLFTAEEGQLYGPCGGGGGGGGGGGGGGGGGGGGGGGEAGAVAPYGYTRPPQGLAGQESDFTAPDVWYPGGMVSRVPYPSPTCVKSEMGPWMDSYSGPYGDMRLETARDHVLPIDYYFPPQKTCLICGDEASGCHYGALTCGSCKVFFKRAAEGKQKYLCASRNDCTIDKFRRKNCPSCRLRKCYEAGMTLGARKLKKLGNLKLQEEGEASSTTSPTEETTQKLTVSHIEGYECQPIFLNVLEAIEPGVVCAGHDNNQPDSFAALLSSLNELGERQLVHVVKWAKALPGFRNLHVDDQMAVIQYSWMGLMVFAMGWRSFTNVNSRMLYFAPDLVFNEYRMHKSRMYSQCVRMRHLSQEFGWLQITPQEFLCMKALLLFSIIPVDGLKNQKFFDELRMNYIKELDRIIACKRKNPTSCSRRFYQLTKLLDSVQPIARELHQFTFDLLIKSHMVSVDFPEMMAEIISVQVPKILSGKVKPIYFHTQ

Ki [nM] | SMILES
1000 | CCC(CC)(c1ccc(OC[C@@H](O)CO)c(C)c1)c1ccc(OC[C@H](O)C(C)(C)C)c(C)c1
1800 | CCC(CC)(c1ccc(OCC(=O)C(C)(C)C)c(C)c1)c1ccc(OC[C@@H](O)CO)c(C)c1
1100 | CCC(CC)(c1ccc(OCC(=O)C(C)(C)C)c(C)c1)c1ccc(OC[C@H](O)CO)c(C)c1
1100 | CCC(CC)(c1ccc(OC[C@H](O)CO)c(C)c1)c1ccc(OC[C@@H](O)C(C)(C)C)c(C)c1
1000 | CCC(CC)(c1ccc(OC[C@H](O)CO)c(C)c1)c1ccc(OC[C@H](O)C(C)(C)C)c(C)c1
1100 | CCC(CC)(c1ccc(OC[C@@H](O)CO)c(C)c1)c1ccc(OC[C@@H](O)C(C)(C)C)c(C)c1

tested on: not listed separately; assay: Toxicity in androgen-dependent mouse SC3 cells at 30 uM; format: cell-based; details: sc-3, 30 µM

SMILES | Activity
CCC(CC)(c1ccc(OCC(O)C(C)(C)Cc2ccc3ccccc3c2)c(C)c1)c1ccc(OC[C@@H](O)CO)c(C)c1 (stereo partly drawn) | Toxic
CCC(CC)(c1ccc(OC[C@@H](O)CO)c(C)c1)c1ccc(O[C@@H]2CN(Cc3ccccc3)C[C@@H]2O)c(C)c1 | Toxic
CCC(CC)(c1ccc(OCC(=O)C(C)(C)Cc2ccccc2)c(C)c1)c1ccc(OC[C@@H](O)CO)c(C)c1 | Toxic
CCC(CC)(c1ccc(OCC(O)C(C)(C)CCCCc2ccccc2)c(C)c1)c1ccc(OC[C@@H](O)CO)c(C)c1 (stereo partly drawn) | Toxic
CCC(CC)(c1ccc(OCC(O)C23CC4CC(CC(C4)C2)C3)c(C)c1)c1ccc(OC[C@@H](O)CO)c(C)c1 (stereo partly drawn) | Toxic

tested on: HL-60; assay: Selectivity index, ratio of EC50 for Vitamin-D activity at VDR receptor in human HL60 cells to EC50 for antiandrogen activity against androgen receptor in androgen-dependent mouse SC3 cells; format: cell-based; details: not given

SMILES | Ratio EC50
CCC(CC)(c1ccc(OCC(=O)C(C)(C)CCc2ccccc2)c(C)c1)c1ccc(OC[C@@H](O)CO)c(C)c1 | 21
CCC(CC)(c1ccc(OCC(O)C(C)(C)CCCc2ccccc2)c(C)c1)c1ccc(OC[C@@H](O)CO)c(C)c1 (stereo partly drawn) | 28
CCC(CC)(c1ccc(OCC(O)C(C)(C)Cc2ccccc2)c(C)c1)c1ccc(OC[C@@H](O)CO)c(C)c1 (stereo partly drawn) | 6.5
CCC(CC)(c1ccc(OCC(=O)C(C)(C)CCCc2ccccc2)c(C)c1)c1ccc(OC[C@@H](O)CO)c(C)c1 | > 3.1
CCC(CC)(c1ccc(OCC(O)C(C)(C)CCc2ccccc2)c(C)c1)c1ccc(OC[C@@H](O)CO)c(C)c1 (stereo partly drawn) | 8.1
CCC(CC)(c1ccc(OCC(=O)C(C)(C)Cc2ccccc2)c(C)c1)c1ccc(OC[C@@H](O)CO)c(C)c1 | < 2.1
CCC(CC)(c1ccc(OCC(O)C23CC4CC(CC(C4)C2)C3)c(C)c1)c1ccc(OC[C@@H](O)CO)c(C)c1 (stereo partly drawn) | < 2.2
